From patent publication US9458137B2, “Substituted indol-5-ol derivatives and their therapeutical applications” (NantBioScience, Inc., priority 2012, dated 2016)

Legend:
Test in all cases: Kinase panel activity
Type in all cases: biochemical
Conditions in all cases: 0.1 μM, ATP Km
[1] = target: CDK1/cyclinB(h) (Homo sapiens, UniProt P06493)
Method: (§1) The effect of NTW-3475 on kinase activity was tested for a wide range of kinases and is shown in Table 2: Summary Sheet, Activity % ATP Concentration: Km

[2] = target: T1, SAPK2b(h) (Homo sapiens, UniProt Q15759)
T1 construct: purchased Millipore (KinaseProfiler service)
T1 sequence (Q15759 whole entry): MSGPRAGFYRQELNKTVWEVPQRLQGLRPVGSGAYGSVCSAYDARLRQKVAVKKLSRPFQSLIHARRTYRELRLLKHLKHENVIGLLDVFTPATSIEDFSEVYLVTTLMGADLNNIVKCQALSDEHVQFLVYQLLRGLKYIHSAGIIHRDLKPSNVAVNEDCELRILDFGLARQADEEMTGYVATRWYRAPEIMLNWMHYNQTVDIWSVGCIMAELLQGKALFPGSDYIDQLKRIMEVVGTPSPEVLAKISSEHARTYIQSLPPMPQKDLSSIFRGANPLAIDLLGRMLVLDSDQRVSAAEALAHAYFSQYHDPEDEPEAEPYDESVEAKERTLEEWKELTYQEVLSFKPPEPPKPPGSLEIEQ
Method: as §1

[3] = target: DDR2(h) (Homo sapiens, UniProt Q16832)
Sequence of DDR2(h) (Q16832 22-855): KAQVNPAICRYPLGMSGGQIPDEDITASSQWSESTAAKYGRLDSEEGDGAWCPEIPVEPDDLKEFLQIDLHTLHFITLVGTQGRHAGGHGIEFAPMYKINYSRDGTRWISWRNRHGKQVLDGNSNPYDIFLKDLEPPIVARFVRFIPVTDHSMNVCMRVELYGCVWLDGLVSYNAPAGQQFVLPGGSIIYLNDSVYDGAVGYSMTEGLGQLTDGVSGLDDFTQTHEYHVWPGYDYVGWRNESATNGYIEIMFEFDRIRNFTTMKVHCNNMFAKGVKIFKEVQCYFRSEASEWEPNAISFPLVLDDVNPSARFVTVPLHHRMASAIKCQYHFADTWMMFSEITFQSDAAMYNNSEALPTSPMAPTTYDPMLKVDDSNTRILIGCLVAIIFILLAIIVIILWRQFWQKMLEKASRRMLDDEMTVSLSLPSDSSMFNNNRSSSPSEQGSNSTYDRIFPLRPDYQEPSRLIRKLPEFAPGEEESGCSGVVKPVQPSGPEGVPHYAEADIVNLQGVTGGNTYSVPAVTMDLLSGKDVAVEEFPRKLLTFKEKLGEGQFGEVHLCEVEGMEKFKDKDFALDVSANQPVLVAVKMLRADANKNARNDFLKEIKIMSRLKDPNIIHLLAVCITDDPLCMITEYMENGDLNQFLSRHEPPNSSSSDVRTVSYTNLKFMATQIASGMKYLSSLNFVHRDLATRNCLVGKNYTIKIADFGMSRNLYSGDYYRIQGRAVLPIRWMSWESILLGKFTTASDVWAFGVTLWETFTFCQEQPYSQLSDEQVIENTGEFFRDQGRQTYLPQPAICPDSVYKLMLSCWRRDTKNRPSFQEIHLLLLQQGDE
Method: as §1

[4] = target: T2, TSSK1(h) (Homo sapiens, UniProt Q9BXA7)
T2 construct: purchased Millipore (KinaseProfiler service)
Method: as §1

[5] = target: p70S6K(h) (Homo sapiens, UniProt P23443)
Method: as §1

[6] = target: T3, SRPK2(h) (Homo sapiens, UniProt P78362)
T3 construct: purchased Millipore (KinaseProfiler service)
Method: as §1

[7] = target: IGF-1R(h), activated (Homo sapiens, UniProt P08069)
Method: as §1

[8] = target: T4, MAPKAP-K2(h) (Homo sapiens, UniProt P49137)
T4 construct: purchased Millipore (KinaseProfiler service)
Method: as §1

[9] = target: T5, DRAK1(h) (Homo sapiens, UniProt Q9UEE5)
T5 construct: purchased Millipore (KinaseProfiler service)
Method: as §1

[10] = target: T6, SRPK1(h) (Homo sapiens, UniProt Q96SB4)
T6 construct: purchased Millipore (KinaseProfiler service)
Method: as §1

[11] = target: T7, Ret(V804M)(h) (Homo sapiens, UniProt P07949, V804M)
T7 construct: purchased Millipore (KinaseProfiler service)
Method: as §1

[12] = target: T8, EphB2(h) (Homo sapiens, UniProt P29323)
T8 construct: purchased Millipore (KinaseProfiler service)
T8 sequence (P29323 19-1055): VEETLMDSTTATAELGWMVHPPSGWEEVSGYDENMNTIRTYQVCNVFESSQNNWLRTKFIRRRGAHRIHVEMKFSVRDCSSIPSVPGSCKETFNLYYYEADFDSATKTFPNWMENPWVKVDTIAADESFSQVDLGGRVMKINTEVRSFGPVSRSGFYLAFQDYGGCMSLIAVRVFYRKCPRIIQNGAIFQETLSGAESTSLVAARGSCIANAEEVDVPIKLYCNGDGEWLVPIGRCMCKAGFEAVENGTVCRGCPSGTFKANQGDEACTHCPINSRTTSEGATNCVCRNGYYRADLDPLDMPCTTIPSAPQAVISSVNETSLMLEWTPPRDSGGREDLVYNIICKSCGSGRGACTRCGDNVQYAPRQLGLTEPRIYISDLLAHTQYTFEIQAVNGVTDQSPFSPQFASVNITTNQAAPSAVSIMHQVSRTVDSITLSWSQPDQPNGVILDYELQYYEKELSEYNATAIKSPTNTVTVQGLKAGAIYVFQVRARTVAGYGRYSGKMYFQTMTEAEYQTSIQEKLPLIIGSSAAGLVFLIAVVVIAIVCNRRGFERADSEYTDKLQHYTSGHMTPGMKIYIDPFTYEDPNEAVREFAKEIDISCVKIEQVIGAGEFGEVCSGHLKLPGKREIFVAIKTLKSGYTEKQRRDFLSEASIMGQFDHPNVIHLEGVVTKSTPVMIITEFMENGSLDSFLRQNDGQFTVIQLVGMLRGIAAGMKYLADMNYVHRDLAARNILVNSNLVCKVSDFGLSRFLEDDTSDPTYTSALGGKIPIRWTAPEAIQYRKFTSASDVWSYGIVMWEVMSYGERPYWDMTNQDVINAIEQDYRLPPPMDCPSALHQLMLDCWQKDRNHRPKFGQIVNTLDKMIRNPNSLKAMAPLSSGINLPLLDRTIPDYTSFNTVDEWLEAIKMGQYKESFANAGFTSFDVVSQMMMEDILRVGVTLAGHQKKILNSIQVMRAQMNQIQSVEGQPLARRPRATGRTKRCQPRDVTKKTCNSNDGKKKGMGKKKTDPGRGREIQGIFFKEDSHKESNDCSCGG
Method: as §1

[13] = target: P1k3(h) (Homo sapiens, UniProt Q9H4B4)
Method: as §1

[14] = target: CLK3(h) (Homo sapiens, UniProt P49761)
Method: as §1

[15] = target: CDK2/cyclinA(h) (Homo sapiens, UniProt P24941)
Method: as §1

[16] = target: JNK3(h) (Homo sapiens, UniProt P53779)
Method: as §1

[17] = target: P1k1(h) (Homo sapiens, UniProt P53350)
Method: as §1

[18] = target: Fgr(h) (Homo sapiens, UniProt P09769)
Method: as §1

[19] = target: T9, TAO3(h) (Homo sapiens, UniProt Q9H2K8)
T9 construct: purchased Millipore (KinaseProfiler service)
Method: as §1

[20] = target: T10, Met(Y1248C)(h) (Homo sapiens, UniProt P08581, Y1230C)
T10 construct: purchased Millipore (KinaseProfiler service)
Method: as §1

[21] = target: NEK3(h) (Homo sapiens, UniProt P51956)
Method: as §1

[22] = target: PKGIβ(h) (Homo sapiens, UniProt Q13976)
Method: as §1

[23] = target: PKC ? (h) (Homo sapiens, UniProt Q02156)
Method: as §1

[24] = target: T11, EGFR(L861Q)(h) (Homo sapiens, UniProt P00533, L861Q)
T11 construct: purchased Millipore (KinaseProfiler service)
Method: as §1

[25] = target: FGFR2(h) (Homo sapiens, UniProt P21802)
Method: as §1

[26] = target: T12, MELK(h) (Homo sapiens, UniProt Q14680)
T12 construct: purchased Millipore (KinaseProfiler service)
Method: as §1

[27] = target: T13, EphB3(h) (Homo sapiens, UniProt P54753)
T13 construct: purchased Millipore (KinaseProfiler service)
Method: as §1

[28] = target: MST2(h) (Homo sapiens, UniProt Q13188)
Method: as §1

[29] = target: T14, MLK1(h) (Homo sapiens, UniProt P80192)
T14 construct: purchased Millipore (KinaseProfiler service)
T14 sequence (P80192 whole entry): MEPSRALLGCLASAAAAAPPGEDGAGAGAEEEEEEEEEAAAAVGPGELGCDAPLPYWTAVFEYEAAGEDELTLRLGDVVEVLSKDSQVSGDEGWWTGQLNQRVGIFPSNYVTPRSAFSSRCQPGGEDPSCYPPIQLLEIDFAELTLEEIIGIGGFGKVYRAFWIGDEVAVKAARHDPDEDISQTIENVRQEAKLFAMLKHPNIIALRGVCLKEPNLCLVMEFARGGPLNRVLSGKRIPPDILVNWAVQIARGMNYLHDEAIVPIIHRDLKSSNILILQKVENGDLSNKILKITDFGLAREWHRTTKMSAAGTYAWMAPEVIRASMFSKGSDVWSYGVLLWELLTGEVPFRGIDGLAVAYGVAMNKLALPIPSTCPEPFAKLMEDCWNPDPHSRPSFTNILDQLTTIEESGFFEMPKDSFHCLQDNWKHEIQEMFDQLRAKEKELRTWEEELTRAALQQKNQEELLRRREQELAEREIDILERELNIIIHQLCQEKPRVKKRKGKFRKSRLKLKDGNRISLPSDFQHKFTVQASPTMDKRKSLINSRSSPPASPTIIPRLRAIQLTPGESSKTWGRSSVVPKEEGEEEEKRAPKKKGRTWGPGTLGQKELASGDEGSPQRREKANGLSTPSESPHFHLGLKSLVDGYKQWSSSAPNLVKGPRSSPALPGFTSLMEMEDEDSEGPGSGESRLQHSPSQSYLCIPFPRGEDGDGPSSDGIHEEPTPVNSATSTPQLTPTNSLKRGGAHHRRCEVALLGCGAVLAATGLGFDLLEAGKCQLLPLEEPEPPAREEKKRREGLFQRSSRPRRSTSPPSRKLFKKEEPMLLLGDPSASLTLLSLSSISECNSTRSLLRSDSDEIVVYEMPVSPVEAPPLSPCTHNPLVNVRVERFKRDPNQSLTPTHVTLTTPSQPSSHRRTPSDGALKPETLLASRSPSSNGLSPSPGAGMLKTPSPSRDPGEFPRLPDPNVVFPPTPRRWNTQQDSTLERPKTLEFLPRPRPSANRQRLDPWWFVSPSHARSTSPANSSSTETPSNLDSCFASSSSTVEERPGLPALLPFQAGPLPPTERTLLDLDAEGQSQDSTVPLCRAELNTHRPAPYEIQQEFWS
Method: as §1

[30] = target: CHK2(II57T)(h) (Homo sapiens, UniProt O96017, I157T)
Sequence of CHK2(II57T)(h) (O96017 5-543 I157T limits assumed): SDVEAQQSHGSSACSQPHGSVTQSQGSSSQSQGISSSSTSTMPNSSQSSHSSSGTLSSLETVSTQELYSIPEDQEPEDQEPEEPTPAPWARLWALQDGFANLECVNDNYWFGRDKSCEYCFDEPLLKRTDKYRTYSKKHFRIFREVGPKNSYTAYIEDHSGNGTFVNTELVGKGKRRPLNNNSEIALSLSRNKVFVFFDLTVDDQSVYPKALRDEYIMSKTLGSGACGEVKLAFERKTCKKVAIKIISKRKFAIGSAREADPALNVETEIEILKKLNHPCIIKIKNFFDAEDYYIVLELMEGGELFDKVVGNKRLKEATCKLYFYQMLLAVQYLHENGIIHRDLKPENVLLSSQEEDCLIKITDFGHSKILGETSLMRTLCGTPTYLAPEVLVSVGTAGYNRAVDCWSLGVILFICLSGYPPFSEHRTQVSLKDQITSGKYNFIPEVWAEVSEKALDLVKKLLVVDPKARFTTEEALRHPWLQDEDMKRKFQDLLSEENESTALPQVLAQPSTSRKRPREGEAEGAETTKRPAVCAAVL
Method: as §1

[31] = target: T15, MSSK1(h) (Homo sapiens, UniProt Q9UPE1)
T15 construct: purchased Millipore (KinaseProfiler service)
Method: as §1

[32] = target: T16, MRCKβ(h) (Homo sapiens, UniProt Q9Y5S2)
T16 construct: purchased Millipore (KinaseProfiler service)
Method: as §1

[33] = target: T17, Tec(h) activated (Homo sapiens, UniProt P42680)
T17 construct: purchased Millipore (KinaseProfiler service)
Method: as §1

[34] = target: CHK1(h) (Homo sapiens, UniProt O14757)
Method: as §1

[35] = target: AMPKα1(h) (Homo sapiens, UniProt Q13131)
Method: as §1

[36] = target: mTOR(h) (Homo sapiens, UniProt P42345)
Method: as §1

[37] = target: T18, EGFR(L858R)(h) (Homo sapiens, UniProt P00533, L858R)
T18 construct: purchased Millipore (KinaseProfiler service)
Method: as §1

[38] = target: T19, EGFR(h) (Homo sapiens, UniProt P00533)
T19 construct: purchased Millipore (KinaseProfiler service)
Method: as §1

[39] = target: cKit(D816H)(h) (Homo sapiens, UniProt P10721, D816H)
Sequence of cKit(D816H)(h) (P10721 26-976 D816H): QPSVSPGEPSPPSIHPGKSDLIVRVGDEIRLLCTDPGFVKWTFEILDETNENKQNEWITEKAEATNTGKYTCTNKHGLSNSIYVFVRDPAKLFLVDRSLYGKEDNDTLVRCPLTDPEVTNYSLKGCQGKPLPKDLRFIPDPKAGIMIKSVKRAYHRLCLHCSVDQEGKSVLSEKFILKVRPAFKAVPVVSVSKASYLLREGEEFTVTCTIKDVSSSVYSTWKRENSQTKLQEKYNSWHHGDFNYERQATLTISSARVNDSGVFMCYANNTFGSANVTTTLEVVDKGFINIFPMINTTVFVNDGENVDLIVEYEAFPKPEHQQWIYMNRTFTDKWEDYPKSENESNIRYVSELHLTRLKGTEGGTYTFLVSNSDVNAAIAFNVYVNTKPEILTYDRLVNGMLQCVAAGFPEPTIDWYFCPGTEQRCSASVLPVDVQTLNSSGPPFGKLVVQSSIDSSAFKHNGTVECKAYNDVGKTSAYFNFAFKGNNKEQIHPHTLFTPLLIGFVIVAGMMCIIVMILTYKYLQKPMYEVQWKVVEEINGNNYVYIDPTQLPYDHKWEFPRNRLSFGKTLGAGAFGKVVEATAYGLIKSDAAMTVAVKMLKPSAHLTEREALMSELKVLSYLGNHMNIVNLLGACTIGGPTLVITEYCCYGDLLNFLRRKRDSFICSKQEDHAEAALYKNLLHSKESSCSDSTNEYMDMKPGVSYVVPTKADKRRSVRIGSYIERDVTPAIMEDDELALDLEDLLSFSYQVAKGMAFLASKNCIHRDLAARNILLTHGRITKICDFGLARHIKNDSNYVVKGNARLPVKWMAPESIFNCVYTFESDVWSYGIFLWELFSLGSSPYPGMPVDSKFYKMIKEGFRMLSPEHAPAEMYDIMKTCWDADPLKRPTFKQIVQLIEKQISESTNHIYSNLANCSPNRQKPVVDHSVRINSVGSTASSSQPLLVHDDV
Method: as §1

Cc1cc2c(F)c(Oc3nc(Nc4cc(C5CC5)[nH]n4)cc(N4CCN(C)CC4)n3)cc(F)c2[nH]1 [NTW-3475]
Activity % [1]: 81% | Activity % [2]: 103% | Activity % [3]: 9% | Activity % [4]: 86% | Activity % [5]: 84% | Activity % [6]: 99% | Activity % [7]: 18% | Activity % [8]: 105% | Activity % [9]: 51% | Activity % [10]: 96% | Activity % [11]: 0% | Activity % [12]: 21% | Activity % [13]: 95% | Activity % [14]: 87% | Activity % [15]: 97% | Activity % [16]: 111% | Activity % [17]: 107% | Activity % [18]: 2% | Activity % [19]: 16% | Activity % [20]: 20% | Activity % [21]: 82% | Activity % [22]: 111% | Activity % [23]: 99% | Activity % [24]: 52% | Activity % [25]: 0% | Activity % [26]: 40% | Activity % [27]: 99% | Activity % [28]: 79% | Activity % [29]: 7% | Activity % [30]: 112% | Activity % [31]: 110% | Activity % [32]: 108% | Activity % [33]: 52% | Activity % [34]: 113% | Activity % [35]: 17% | Activity % [36]: 115% | Activity % [37]: 72% | Activity % [38]: 108% | Activity % [39]: 9%
